Data on one compound can be found in ChEMBL document CHEMBL5518235, “Identification of Novel Series of Potent and Selective Relaxin Family Peptide Receptor 1 (RXFP1) Agonists” (J Med Chem, 2024).

The structures appear in SMILES notation. Converted amounts (≈) assume the structure as drawn.

A short description of series [1]: Unbound Cmax in Sprague-Dawley rat at 1.5 mg/kg, iv administered via bolus followed by 9.0 mg/kg, iv administered via infusion for 3 hrs and measured 1 hrs post washout by LC-MS/MS analysis. The note with it: in vivo. It is filed as ADME, organism-based.
A short description of series [2]: Lipophilicity, logD of the compound in 1-octanol and phosphate buffer at pH 7.4 incubated for 3 hrs by shake flask method based LC/MS/MS analysis. The class given is physicochemical. The note with it: 1-octanol/phosphate buffer, pH 7.4.
Series [3] in a line: Solubility of compound in phosphate buffer at pH 6.5. The class given is physicochemical.
A short description of series [4]: Volume of distribution at steady state in Han Wistar rat at 0.73 micromol/kg, iv by LC-MS/MS analysis. It is filed as ADME, organism-based. The note with it: in vivo, dose 0.73 µmol/kg, read-out: Vdss.
For a further series, the target named is Bile salt export pump (Homo sapiens, UniProt O95342). Kind of series: Inhibition of BSEP (unknown origin) by membrane vesicle assay. It is filed as toxicity.
Series [5] is described as follows: Metabolic stability in cryopreserved human hepatocytes assessed as intrinsic clearance measured per 10^6 cells at 1 uM after 120 mins by LC-MS/MS analysis. It is filed as ADME, cell-based, Hepatocyte. The following applies: hepatocytes, 2 h, 1 µM.
Series [6] deals with T1, Relaxin receptor 1 (Homo sapiens, UniProt Q9HBX9).
T1 sequence (Q9HBX9 whole entry): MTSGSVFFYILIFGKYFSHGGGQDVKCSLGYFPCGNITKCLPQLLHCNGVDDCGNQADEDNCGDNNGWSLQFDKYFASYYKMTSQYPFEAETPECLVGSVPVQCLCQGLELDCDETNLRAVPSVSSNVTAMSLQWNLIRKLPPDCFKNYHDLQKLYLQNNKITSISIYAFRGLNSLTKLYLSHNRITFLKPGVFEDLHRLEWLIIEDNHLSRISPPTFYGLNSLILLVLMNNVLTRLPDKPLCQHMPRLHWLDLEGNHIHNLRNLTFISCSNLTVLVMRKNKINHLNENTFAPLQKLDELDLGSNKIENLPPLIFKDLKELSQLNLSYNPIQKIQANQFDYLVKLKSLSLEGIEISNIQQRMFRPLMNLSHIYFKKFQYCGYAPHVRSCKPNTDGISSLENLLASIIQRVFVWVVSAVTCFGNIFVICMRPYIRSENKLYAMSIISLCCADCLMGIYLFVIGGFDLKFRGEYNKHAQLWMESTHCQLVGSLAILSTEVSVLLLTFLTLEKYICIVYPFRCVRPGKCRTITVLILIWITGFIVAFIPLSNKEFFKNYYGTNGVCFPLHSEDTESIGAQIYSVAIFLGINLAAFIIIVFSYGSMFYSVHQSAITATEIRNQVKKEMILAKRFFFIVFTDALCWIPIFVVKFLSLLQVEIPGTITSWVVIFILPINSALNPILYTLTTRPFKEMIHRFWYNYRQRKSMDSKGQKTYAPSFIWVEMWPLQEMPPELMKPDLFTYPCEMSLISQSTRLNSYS
The series can be described thus: Agonist activity at human RXFP1 expressed in T-Rex-CHO-K1 cells assessed as stimulation of cAMP production incubated for 45 mins by HTRF assay. It is filed as functional, cell-based. (In general: Cyclic AMP is a second messenger, typically raised through Gs and lowered through Gi signalling.)

Series [7] in a line: Genotoxicity in human A549 upto 1000 uM by micronucleus test. The following applies: a549, 1000 µM. The class given is toxicity, cell-based.
Series [8] can be described thus: Cytotoxicity against human HepG2 cells cultured under galactose condition assessed as reduction in cell viability. The class given is toxicity, cell-based.
Series [9] can be described thus: Oral bioavailability in Han Wistar rat at 1.46 micromol/kg by LC-MS/MS analysis. It is filed as ADME, organism-based. The following applies: in vivo, 1.46 µmol/kg.
Series [10] is described as follows: Half-life in Han Wistar rat at 0.73 micromol/kg, iv by LC-MS/MS analysis. It is filed as ADME, organism-based. The following applies: in vivo, dose 0.73 µmol/kg.
A short description of series [11]: Metabolic stability in Han Wistar rat hepatocytes assessed as unbound intrinsic clearance measured […] at 1 uM after 120 mins by LC-MS/MS analysis. It is filed as ADME, cell-based, Hepatocyte. The note with it: 2 h.
A short description of series [12]: Cytotoxicity against human THP-1 cells assessed as reduction of cell viability incubated for 48 hrs by resazurin reduction assay. It is filed as toxicity, cell-based. (In general: Alamar Blue is a resazurin reagent that responds to reducing activity.)
Series [13] addresses T1, Relaxin receptor 1. The series can be described thus: Agonist activity at human RXFP1 expressed in T-Rex-CHO-K1 cells assessed as stimulation of cAMP production by measuring unbound concentration incubated for 45 mins by HTRF assay.
For series [14], the target named is T2, Relaxin receptor 1 (Rattus norvegicus) (UniProt Q6R6I6).
T2 sequence (whole entry): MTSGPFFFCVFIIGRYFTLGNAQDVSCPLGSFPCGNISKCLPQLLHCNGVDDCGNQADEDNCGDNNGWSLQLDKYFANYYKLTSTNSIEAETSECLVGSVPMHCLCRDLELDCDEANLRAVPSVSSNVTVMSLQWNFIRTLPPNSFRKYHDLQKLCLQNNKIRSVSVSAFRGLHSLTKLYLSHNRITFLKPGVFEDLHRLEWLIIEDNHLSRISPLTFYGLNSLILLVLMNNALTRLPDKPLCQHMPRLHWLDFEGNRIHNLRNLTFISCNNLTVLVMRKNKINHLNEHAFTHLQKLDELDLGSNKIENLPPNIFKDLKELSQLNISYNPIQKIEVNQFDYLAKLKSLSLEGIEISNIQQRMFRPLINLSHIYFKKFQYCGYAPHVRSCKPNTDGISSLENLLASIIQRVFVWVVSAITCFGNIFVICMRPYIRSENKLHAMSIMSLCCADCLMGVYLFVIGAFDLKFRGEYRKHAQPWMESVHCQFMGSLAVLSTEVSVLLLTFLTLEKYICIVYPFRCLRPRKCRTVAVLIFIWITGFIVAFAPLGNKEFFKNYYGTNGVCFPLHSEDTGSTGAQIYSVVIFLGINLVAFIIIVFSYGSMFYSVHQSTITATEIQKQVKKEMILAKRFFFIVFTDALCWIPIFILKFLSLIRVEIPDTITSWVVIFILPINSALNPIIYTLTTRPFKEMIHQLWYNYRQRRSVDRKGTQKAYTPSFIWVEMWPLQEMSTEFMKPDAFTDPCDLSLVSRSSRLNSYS
The series can be described thus: Agonist activity at rat RXFP1 expressed in T-Rex-CHO-K1 cells assessed as stimulation of cAMP production by measuring maximal efficacy incubated for 60 mins by HTRF assay relative to control. The note with it: filed as agonist. The class given is functional, cell-based.

Bile salt export pump, sequence (O95342 whole entry): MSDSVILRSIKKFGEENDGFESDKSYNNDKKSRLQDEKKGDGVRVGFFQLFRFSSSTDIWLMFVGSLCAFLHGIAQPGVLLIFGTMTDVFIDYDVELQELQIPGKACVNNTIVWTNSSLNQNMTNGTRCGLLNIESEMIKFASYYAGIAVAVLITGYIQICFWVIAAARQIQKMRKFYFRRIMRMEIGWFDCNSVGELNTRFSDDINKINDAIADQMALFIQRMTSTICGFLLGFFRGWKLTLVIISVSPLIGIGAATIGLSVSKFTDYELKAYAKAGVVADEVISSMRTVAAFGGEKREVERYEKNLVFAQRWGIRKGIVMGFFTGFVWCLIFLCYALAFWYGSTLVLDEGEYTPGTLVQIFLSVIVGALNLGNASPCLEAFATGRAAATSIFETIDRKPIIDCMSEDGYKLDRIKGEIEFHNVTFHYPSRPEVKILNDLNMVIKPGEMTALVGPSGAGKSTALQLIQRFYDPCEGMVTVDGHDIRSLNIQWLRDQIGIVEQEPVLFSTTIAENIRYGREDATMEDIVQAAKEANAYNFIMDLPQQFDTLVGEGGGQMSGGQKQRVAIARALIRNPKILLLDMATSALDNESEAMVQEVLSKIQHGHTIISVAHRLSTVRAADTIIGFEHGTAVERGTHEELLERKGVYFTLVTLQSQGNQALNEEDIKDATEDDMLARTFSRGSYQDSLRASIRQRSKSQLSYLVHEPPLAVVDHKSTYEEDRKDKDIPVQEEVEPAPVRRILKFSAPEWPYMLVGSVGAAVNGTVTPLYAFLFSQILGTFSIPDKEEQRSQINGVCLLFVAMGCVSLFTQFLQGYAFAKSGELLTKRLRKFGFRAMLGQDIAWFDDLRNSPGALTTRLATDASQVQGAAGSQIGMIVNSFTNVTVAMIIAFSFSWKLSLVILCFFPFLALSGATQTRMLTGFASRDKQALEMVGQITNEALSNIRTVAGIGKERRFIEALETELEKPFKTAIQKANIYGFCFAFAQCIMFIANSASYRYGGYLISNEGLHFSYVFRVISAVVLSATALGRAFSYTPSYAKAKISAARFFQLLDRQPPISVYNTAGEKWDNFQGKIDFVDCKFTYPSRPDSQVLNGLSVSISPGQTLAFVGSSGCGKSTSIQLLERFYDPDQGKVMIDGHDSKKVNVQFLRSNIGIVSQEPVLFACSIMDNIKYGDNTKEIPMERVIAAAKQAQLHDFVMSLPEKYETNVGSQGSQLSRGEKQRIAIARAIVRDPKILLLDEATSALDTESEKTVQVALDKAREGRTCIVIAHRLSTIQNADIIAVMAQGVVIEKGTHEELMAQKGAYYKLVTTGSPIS

A word on the logD: it is lipophilicity at a set pH, counting ionised and neutral species. A higher logD goes with a more lipophilic compound. Broadly, the solubility is the dissolved amount per volume that the medium holds. The term IC50 denotes the concentration that inhibits the measured activity by half. Broadly, the EC50 is the midpoint of the concentration-response curve. One may read the bioavailability as dose-corrected exposure relative to a reference, in per cent. By half-life is commonly meant the time needed for the level to fall by half in the phase considered. The term Emax denotes the maximal effect, on the per cent scale that the assay sets. In the case of `COc1cc(F)c(O[C@H]2CC[C@@](C)(C(=O)O)CC2)cc1C(=O)N[C@@H]1[C@H]2CC[C@H](C2)[C@@H]1C(=O)Nc1ccc(F)c(S(F)(F)(F)(F)F)c1`, the fCmax in [1] is on record as 10 nM. Besides, in series [2], the logD at 3 h came to 4.9. The same compound showed a solubility in series [3] of 0.13 µM (≈ 0.0887 µg/mL). In addition, the Vd in series [4] amounted to 2.3 L/kg. Besides, the values for the IC50 (on Bile salt export pump; in [8]) were 23 µM and 37 µM, respectively. In series [5], the CLH turned out to be 21 µL/min/1e6 cells. Also, the EC50 at Relaxin receptor 1 [6] was 0.000398 µM; on Relaxin receptor 1 [13], < 0.0316 nM. In addition, the Activity result in [7] is reported as “Non-Toxic”. This compound also registered a bioavailability in [9] of 11%. In addition, the half-life in series [10] is 2.9 h. Moreover, the CL free in [11] was found to be 2.4 µL/min. The IC50 at 48 h in series [12] came to 15 µM. Moreover, the Emax in [14] was found to be 139%.
